Measurements taken from ChEMBL document CHEMBL1909046, “DrugMatrix in vitro pharmacology data”.
pIC50, pKi: −log10 of the molar value.

Columns and labels:
[1] = DRUGMATRIX: GABAA, Chloride Channel, TBOB radioligand binding (ligand: [3H] TBOB); assay type: cell membranes, Rattus norvegicus, Wistar, Cerebral cortex, Membrane; settings: Not Active = under 50% inhibition at 10 µM
[2] = DRUGMATRIX: Leukotriene, BLT (LTB4) radioligand binding (ligand: [3H]LTB4); assay type: cell membranes, Membrane; settings: u-937; Not Active = under 50% inhibition at 10 µM
[3] = biological target: Voltage-gated inwardly rectifying potassium channel KCNH2 (Homo sapiens, UniProt Q12809); further: in other assays of this panel Not Active means under 50% inhibition at 10 µM
Sequence of Voltage-gated inwardly rectifying potassium channel KCNH2 (Q12809 whole entry): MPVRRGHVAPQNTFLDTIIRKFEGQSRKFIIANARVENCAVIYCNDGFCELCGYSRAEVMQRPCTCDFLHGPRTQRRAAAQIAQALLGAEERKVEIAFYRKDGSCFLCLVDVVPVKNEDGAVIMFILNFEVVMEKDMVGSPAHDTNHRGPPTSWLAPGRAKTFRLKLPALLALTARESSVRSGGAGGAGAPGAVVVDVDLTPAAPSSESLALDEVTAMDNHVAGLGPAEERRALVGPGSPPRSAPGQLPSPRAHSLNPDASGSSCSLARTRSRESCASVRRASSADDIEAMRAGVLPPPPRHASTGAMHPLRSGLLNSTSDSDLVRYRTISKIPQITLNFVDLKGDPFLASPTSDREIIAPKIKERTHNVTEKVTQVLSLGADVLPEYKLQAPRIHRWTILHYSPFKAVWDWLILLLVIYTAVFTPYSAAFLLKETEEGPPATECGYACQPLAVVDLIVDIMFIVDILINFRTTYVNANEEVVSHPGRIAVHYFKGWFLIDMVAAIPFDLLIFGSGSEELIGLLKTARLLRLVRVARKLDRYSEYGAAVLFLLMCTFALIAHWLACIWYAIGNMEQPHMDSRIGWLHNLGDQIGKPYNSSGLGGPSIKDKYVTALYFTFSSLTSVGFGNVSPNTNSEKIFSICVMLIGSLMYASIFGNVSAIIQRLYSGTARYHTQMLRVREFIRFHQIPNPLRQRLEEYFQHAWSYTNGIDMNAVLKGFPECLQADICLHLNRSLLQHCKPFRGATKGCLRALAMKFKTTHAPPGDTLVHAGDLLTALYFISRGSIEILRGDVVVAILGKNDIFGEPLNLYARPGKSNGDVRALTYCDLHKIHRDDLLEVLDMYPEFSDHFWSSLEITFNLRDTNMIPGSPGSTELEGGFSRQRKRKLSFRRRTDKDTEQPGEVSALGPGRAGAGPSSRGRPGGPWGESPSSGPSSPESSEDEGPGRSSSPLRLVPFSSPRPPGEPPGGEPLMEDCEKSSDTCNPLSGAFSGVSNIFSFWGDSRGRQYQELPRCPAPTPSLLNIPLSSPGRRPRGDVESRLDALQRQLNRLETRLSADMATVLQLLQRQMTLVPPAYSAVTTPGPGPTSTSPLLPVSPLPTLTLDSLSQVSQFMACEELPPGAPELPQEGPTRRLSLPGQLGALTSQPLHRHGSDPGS

[4] = biological target: Cytochrome P450 2C9 (Homo sapiens, UniProt P11712); further: in other assays of this panel Not Active means under 50% inhibition at 10 µM
Sequence of Cytochrome P450 2C9 (P11712 whole entry): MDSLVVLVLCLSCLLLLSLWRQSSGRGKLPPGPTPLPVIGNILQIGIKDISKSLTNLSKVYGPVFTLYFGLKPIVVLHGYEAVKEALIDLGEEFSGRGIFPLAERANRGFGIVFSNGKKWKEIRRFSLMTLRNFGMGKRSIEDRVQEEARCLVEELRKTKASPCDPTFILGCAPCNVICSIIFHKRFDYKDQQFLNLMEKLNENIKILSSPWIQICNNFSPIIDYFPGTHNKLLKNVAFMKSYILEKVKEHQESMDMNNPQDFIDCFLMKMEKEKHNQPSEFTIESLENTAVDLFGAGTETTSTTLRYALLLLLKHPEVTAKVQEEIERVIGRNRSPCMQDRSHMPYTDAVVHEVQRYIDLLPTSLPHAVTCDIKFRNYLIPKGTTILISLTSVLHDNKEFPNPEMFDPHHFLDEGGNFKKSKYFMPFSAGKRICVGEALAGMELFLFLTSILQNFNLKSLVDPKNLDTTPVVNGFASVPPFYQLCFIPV

[5] = biological target: T1, Androgen receptor (Rattus norvegicus, UniProt P15207); further: in other assays of this panel Not Active means under 50% inhibition at 10 µM
T1 sequence (P15207 whole entry): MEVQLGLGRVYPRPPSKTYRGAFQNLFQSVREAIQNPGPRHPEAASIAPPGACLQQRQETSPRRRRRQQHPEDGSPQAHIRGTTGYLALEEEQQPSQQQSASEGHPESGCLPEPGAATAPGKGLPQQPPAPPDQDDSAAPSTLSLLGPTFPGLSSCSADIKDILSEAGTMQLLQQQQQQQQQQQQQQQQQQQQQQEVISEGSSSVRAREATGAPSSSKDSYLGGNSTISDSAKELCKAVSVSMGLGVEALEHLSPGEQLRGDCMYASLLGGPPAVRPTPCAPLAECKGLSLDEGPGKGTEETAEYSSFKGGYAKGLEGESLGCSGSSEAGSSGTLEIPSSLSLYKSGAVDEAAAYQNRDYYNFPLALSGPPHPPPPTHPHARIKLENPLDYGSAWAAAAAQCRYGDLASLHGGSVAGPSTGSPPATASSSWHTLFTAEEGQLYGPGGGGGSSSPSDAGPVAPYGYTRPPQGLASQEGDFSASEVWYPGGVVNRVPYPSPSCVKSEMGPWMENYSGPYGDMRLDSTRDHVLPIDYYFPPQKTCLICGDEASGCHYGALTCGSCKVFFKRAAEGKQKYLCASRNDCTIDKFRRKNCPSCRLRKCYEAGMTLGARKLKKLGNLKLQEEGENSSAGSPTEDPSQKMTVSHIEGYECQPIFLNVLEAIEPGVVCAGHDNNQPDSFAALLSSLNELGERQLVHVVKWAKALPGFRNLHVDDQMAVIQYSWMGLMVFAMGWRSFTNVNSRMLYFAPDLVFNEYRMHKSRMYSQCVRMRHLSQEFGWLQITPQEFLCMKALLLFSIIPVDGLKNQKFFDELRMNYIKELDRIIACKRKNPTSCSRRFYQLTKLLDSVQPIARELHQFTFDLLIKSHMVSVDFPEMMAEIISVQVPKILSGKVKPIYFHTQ

[6] = biological target: Cytochrome P450 2C19 (Homo sapiens, UniProt P33261); further: in other assays of this panel Not Active means under 50% inhibition at 10 µM
Sequence of Cytochrome P450 2C19 (P33261 whole entry): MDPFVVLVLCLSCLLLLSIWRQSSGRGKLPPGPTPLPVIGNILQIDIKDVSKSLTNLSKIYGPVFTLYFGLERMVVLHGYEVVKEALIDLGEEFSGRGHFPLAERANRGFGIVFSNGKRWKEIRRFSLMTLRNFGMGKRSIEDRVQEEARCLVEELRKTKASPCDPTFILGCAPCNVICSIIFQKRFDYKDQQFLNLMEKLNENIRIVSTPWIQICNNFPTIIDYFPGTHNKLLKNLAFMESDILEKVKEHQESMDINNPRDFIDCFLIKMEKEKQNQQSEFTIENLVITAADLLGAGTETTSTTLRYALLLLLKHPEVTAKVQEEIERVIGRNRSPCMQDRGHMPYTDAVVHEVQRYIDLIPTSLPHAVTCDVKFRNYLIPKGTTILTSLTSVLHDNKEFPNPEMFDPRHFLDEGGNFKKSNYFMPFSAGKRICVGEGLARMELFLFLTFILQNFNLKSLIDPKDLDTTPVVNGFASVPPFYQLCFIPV

[7] = biological target: T2, Glucocorticoid receptor (Homo sapiens, UniProt P04150); test: biochemical; further: in other assays of this panel Not Active means under 50% inhibition at 10 µM
T2 sequence (P04150 whole entry): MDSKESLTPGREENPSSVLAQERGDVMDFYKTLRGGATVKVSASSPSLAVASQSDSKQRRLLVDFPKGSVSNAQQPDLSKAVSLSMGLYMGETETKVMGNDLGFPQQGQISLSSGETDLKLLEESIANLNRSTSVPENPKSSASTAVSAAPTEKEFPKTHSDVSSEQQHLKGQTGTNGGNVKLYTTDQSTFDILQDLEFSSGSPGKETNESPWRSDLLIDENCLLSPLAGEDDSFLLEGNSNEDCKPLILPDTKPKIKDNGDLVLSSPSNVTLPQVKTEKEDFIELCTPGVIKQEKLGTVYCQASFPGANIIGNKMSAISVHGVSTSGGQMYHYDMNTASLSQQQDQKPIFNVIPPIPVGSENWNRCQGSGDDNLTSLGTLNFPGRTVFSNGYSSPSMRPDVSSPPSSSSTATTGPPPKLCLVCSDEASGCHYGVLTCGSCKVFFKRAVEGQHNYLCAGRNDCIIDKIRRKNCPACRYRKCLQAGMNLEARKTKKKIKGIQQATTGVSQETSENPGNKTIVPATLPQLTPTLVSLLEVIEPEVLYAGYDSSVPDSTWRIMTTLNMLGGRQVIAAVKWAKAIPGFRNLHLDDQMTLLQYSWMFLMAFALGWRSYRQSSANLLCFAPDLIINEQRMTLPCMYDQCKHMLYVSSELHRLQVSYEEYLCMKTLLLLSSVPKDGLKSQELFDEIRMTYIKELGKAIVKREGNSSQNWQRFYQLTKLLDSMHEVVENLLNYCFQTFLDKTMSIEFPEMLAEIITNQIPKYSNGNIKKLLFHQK

Structure (SMILES)	IC50 [1]	Ki [1]	IC50 [2]	Ki [2]	pIC50 [3]	pKi [3]	pIC50 [4]	IC50 [5]	pIC50 [6]	pIC50 [7]	pKi [7]
C[C@@H]1CN(c2c(F)c(N)c3c(=O)c(C(=O)O)cn(C4CC4)c3c2F)C[C@H](C)N1 [SPARFLOXACIN]	Not Active	Not Active	Not Active	Not Active	4.33	4.41	–	–	–	–	–
Cc1c(C)c2c(c(C)c1O)CCC(C)(COc1ccc(CC3SC(=O)NC3=O)cc1)O2 (centres undefined) [TROGLITAZONE]	Not Active	Not Active	Not Active	Not Active	–	–	5.40	Not Active	–	–	–
CC(=O)[C@@]1(O)CC[C@H]2[C@@H]3C[C@H](C)C4=CC(=O)CC[C@]4(C)[C@H]3CC[C@@]21C	Not Active	Not Active	Not Active	Not Active	–	–	–	–	5.70	7.72	8.07
